{
  "source": "patent US20200022951A1",
  "about": "“MULTIVITAMIN COMPOSITION FOR IMPROVING VERBAL FLUENCY, DECREASING PERFORMANCE ANXIETY SYMPTOMS AND METHOD FOR PREPARING SAME” (priority 2017, published 2020)",
  "tested_on": "individuals with performance anxiety",
  "experiment": "trials using the composition: anxiety and speech fluency",
  "format": "in vivo",
  "settings": "as component of the composition of the invention",
  "data": [
    {"smiles": "NCCCC[C@H](N)C(=O)O", "note": "[L-Lysine]", "values": [
      {"measurement": "effect on anxiety amelioration", "value": "positive effect"}
    ]}
  ]
}
